# Columns and labels:
# [1] = test system: primary microglia from wild-type mice; test: Effect of REV-ERBα agonist on LPS-induced IL-6 secretion (ELISA), wild-type microglia; assay type: cell-based, mouse; conditions: for IL-6 secreted: WT microglia
# Method: (§1) The efficacy of SR9009 was evaluated by analyzing IL-6 at protein and mRNA expression levels according to post-LPS treatment time (2, 6, 12, and 24 hours) in the same ELISA and qRT-PCR as in Example 5.
# [2] = test system: primary microglia from Psen2 mutation mouse model of Alzheimer's disease; test: Effect of REV-ERBα agonist on LPS-induced IL-6 secretion (ELISA), Psen2 mutation microglia; assay type: cell-based; conditions: for IL-6 secreted: KI/+ microglia
# Method: as §1
# [3] = test system: primary microglia from wild-type mice; test: Effect of REV-ERBα agonist on LPS-induced IL-6 mRNA (qRT-PCR), wild-type microglia; assay type: cell-based, mouse; conditions: for IL-6 mRNA expression level: WT microglia
# Method: as §1
# [4] = test system: primary microglia from Psen2 mutation mouse model of Alzheimer's disease; test: Effect of REV-ERBα agonist on LPS-induced IL-6 mRNA (qRT-PCR), Psen2 mutation microglia; assay type: cell-based; conditions: for IL-6 mRNA expression level: KI/+ microglia
# Method: as §1
# [5] = wild-type microglia, group 32 vs 31, 2, 6, 12 and 24 hours
# [6] = 10 NM SR9009, LPS 1 μg/mL 2 h (Group 34)
# [7] = 10 NM SR9009, LPS 1 μg/mL 6 h (Group 34)
# [8] = 10 NM SR9009, LPS 1 μg/mL 12 h (Group 34)
# [9] = 10 NM SR9009, LPS 1 μg/mL 24 h (Group 34)
smiles,measurement,setting,value
CCOC(=O)N1CCC(CN(Cc2ccc(Cl)cc2)Cc2ccc([N+](=O)[O-])s2)C1 (centres unmarked) [SR9009],IL-6 secreted,"[1]; 10 NM SR9009, LPS 1 μg/mL 2 h (Group 32)",24.467 pg/mL
same,IL-6 secreted,"[1]; 10 NM SR9009, LPS 1 μg/mL 6 h (Group 32)",85.630 pg/mL
same,IL-6 secreted,"[1]; 10 NM SR9009, LPS 1 μg/mL 12 h (Group 32)",361.583 pg/mL
same,IL-6 secreted,"[1]; 10 NM SR9009, LPS 1 μg/mL 24 h (Group 32)",555.053 pg/mL
same,production of IL-6 (in words),[1]; [5],repressed the production of IL-6
same,IL-6 secreted,[2]; [6],38.229 pg/mL
same,IL-6 secreted,[2]; [7],332.114 pg/mL
same,IL-6 secreted,[2]; [8],1146.560 pg/mL
same,IL-6 secreted,[2]; [9],1657.510 pg/mL
same,production of IL-6 (in words),"[2]; Psen2 mutation microglia, SR9009-treated group vs group 33",cannot repress
same,IL-6 mRNA expression level,"[3]; SR9009, LPS 1 μg/mL 2 h (Group 32)",0.456 fold
same,IL-6 mRNA expression level,"[3]; SR9009, LPS 1 μg/mL 6 h (Group 32)",1.098 fold
same,IL-6 mRNA expression level,"[3]; SR9009, LPS 1 μg/mL 12 h (Group 32)",1.129 fold
same,IL-6 mRNA expression level,"[3]; SR9009, LPS 1 μg/mL 24 h (Group 32)",2.150 fold
same,mRNA expression of IL-6 (in words),[3]; [5],repressed the mRNA expression of IL-6
same,IL-6 mRNA expression level,[4]; [6],1.134 fold
same,IL-6 mRNA expression level,[4]; [7],7.810 fold
same,IL-6 mRNA expression level,[4]; [8],8.512 fold
same,IL-6 mRNA expression level,[4]; [9],11.141 fold
same,mRNA expression of IL-6 (in words),"[4]; Psen2 mutant microglia, group 34 vs 33",cannot repress
